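Where inhibition never reached the appropriate level, the endpoint shown equals the highest concentration tested. Otherwise, values were interpolated linearly from a five-concentration, 48-hour dose response in 96-well plates. GI50 = concentration required for 50% inhibition of growth. TGI marks complete inhibition of growth.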

Test systems include T-47D breast; XF 498 CNS; LXFL 529 NSCLC; DLD-1 colon; MDA-N; KM20L2 colon; RXF-631 renal.
Common to all, as to test: growth of human tumour cells (NCI), 48 h

For the compound `CC[C@@]1(O)C(=O)OCc2c1cc1n(c2=O)Cc2cc3c(OC)cccc3nc2-1`, the GI50 in the experiment with T-47D breast and with MDA-N was > 100 µM each time. The TGI in the experiment with T-47D breast is > 100 µM; in the experiment on XF 498 CNS, 0.876 µM; with LXFL 529 NSCLC it was > 23.1 µM; with DLD-1 colon it was 19.3 µM; with MDA-N, > 100 µM; with KM20L2 colon, > 23.6 µM. Moreover, in the experiment with RXF-631 renal, the TGI worked out at 1.45 µM.
For `CCOc1ccc(N=C2NC(=O)C(CC(=O)Nc3ccc(Cl)cc3Cl)S2)cc1` (centres undefined), the TGI in the experiment with XF 498 CNS, in the experiment on LXFL 529 NSCLC, with DLD-1 colon, with KM20L2 colon and in the experiment with RXF-631 renal was > 100 µM in each case.
`Cc1ccc(S(=O)OC2c3ccccc3Cc3ccccc32)cc1` (centres undefined): the TGI came to 30.3 µM in the experiment with XF 498 CNS; 31.1 µM with LXFL 529 NSCLC; 58.5 µM in the experiment with DLD-1 colon; 47.2 µM in the experiment on KM20L2 colon; 40.2 µM in the experiment on RXF-631 renal.
As for `CN1C[C@@H]2CC(=O)CC[C@@H]2C[C@H]1C#N`, the TGI with XF 498 CNS, with LXFL 529 NSCLC, with DLD-1 colon, with KM20L2 colon and in the experiment on RXF-631 renal was > 100 µM each time.
For the compound `CC1=CC=C2C(C)(C)CC[C@@H]3OC(=O)[C@H]1[C@]23C`, the TGI in the experiment with XF 498 CNS, with LXFL 529 NSCLC, with DLD-1 colon, in the experiment with KM20L2 colon and in the experiment on RXF-631 renal was > 100 µM each time.
As for `COC(=O)c1oc([N+](=O)[O-])c(-c2ccccc2)c1-c1ccccc1`, the TGI in the experiment with XF 498 CNS, in the experiment with LXFL 529 NSCLC, in the experiment on DLD-1 colon, in the experiment with KM20L2 colon and in the experiment on RXF-631 renal was > 100 µM in each case.
On to `Cc1ccccc1C(C#N)/C(=N/NC(N)=S)C(=O)Nc1c(C)cccc1C` (centres undefined), for which the TGI in the experiment on XF 498 CNS, with LXFL 529 NSCLC, in the experiment on DLD-1 colon, in the experiment on KM20L2 colon and with RXF-631 renal was > 100 µM in each case.
`Cc1ccc(NC(=O)CC2SC(=Nc3cccc(Cl)c3C)NC2=O)cc1` (centres undefined): the TGI with XF 498 CNS, with LXFL 529 NSCLC, in the experiment with DLD-1 colon, in the experiment on KM20L2 colon and in the experiment on RXF-631 renal was > 100 µM throughout.
As for `N#CCC(=O)N/N=C(/C(=O)Nc1ccccc1)C1C(=O)N(c2ccccc2)N=C1N` (centres undefined), the TGI in the experiment on XF 498 CNS, in the experiment with LXFL 529 NSCLC, with DLD-1 colon, in the experiment on KM20L2 colon and in the experiment on RXF-631 renal was > 100 µM in each case.

(Values after PubChem BioAssay (NCI).)
